Converted amounts (≈) assume the structure as drawn. The source made the active and inactive calls. No cut-off for these calls is given here.
Assays:
[1] = system: Pseudomonas aeruginosa; assay: Antimicrobial activity against Pseudomonas aeruginosa ATCC 27853 assessed as inhibition of bacterial growth incubated for 48 hrs by CLSI based broth microdilution method; assay type: functional
[2] = Hemolytic activity in human RBC assessed as hemolysis incubated for 1 hr by absorbance based microplate reader analysis; assay type: toxicity, cell-based, Erythrocyte; details: human red blood cells (erythrocytes)
[3] = system: Staphylococcus aureus; assay: Antimicrobial activity against Staphylococcus aureus ATCC 9144 assessed as inhibition of bacterial growth incubated for 48 hrs by CLSI based broth microdilution method; assay type: functional
[4] = system: Escherichia coli; assay: Antimicrobial activity against Escherichia coli ATCC 25922 assessed as inhibition of bacterial growth incubated for 48 hrs by CLSI based broth microdilution method; assay type: functional
[5] = system: Bacillus subtilis; assay: Antimicrobial activity against Bacillus subtilis 168 assessed as inhibition of bacterial growth incubated for 48 hrs by CLSI based broth microdilution method; assay type: functional
[6] = Selectivity index, ratio of EC50 for hemolytic activity in human RBC assessed as hemolysis to MIC for antimicrobial activity against Bacillus subtilis 168 assessed as inhibition of bacterial growth; assay type: toxicity; details: human red blood cells (erythrocytes), read-out: Selectivity Index
[7] = Selectivity index, ratio of EC50 for hemolytic activity in human RBC assessed as hemolysis to MIC for antimicrobial activity against Staphylococcus aureus ATCC 9144 assessed as inhibition of bacterial growth; assay type: toxicity; details: human red blood cells (erythrocytes), read-out: Selectivity Index
[8] = Selectivity index, ratio of EC50 for hemolytic activity in human RBC assessed as hemolysis to MIC for antimicrobial activity against Escherichia coli ATCC 25922 assessed as inhibition of bacterial growth; assay type: toxicity; details: human red blood cells (erythrocytes), read-out: Selectivity Index
[9] = Selectivity index, ratio of EC50 for hemolytic activity in human RBC assessed as hemolysis to MIC for antimicrobial activity against Pseudomonas aeruginosa ATCC 27853 assessed as inhibition of bacterial growth; assay type: toxicity; details: human red blood cells (erythrocytes), read-out: Selectivity Index
[10] = system: Cell membrane; assay: Induction of outer membrane permeabilization in Escherichia coli K12 assessed as increase in fluorescence intensity at 1.6 to 51.2 microg/ml measured for […] by NPN uptake assay; assay type: subcellular; details: dose 1.6-51.2 µg/ml
[11] = system: Cell membrane; assay: Disruption of inner membrane integrity in Escherichia coli K12 at 51.2 microg/ml measured for 3 mins by luciferase based bioluminescence assay; assay type: subcellular; details: dose 51.2 µg/ml
[12] = system: Cell membrane; assay: Disruption of inner membrane integrity in Escherichia coli K12 at 1.6 to 25.6 microg/ml measured for 3 mins by luciferase based bioluminescence assay; assay type: subcellular; details: dose 1.6-25.6 µg/ml
[13] = system: Bacillus subtilis; assay: Antibacterial activity against Bacillus subtilis 168 assessed as reduction in bacterial viability at 1.6 to 51.2 microg/ml measured after 3 min; assay type: functional, organism-based; details: dose 1.6-51.2 µg/ml
[14] = system: Escherichia coli; assay: Antibacterial activity against Escherichia coli K12 assessed as reduction in bacterial viability at 51.2 microg/ml measured for 3 min; assay type: functional, organism-based; details: dose 51.2 µg/ml
[15] = system: Cell membrane; assay: Disruption of outer membrane integrity in Escherichia coli K12 assessed as increase in fluorescence intensity at 51.2 microg/ml measured for 3 mins by NPN uptake assay; assay type: subcellular; details: dose 51.2 µg/ml
[16] = system: Cell membrane; assay: Disruption of membrane integrity in Bacillus subtilis 168 at 25.6 to 51.2 microg/ml measured for 180 sec by luciferase based bioluminescence assay; details: dose 25.6-51.2 µg/ml
[17] = system: Cell membrane; assay: Disruption of membrane integrity in Bacillus subtilis 168 measured for 180 sec by luciferase based bioluminescence assay; assay type: subcellular; details: dose 1.6-51.2 µg/ml
[18] = system: Escherichia coli; assay: Antibacterial activity against Escherichia coli K12 assessed as reduction in bacterial viability at 1.6 to 51.2 microg/ml measured for 3 min; assay type: functional, organism-based; details: dose 1.6-51.2 µg/ml
[19] = system: Escherichia coli; assay: Antibacterial activity against Escherichia coli K12 assessed as reduction in bacterial viability measured for 3 min; assay type: functional, organism-based; details: dose 1.6-51.2 µg/ml
[20] = system: Cell membrane; assay: Disruption of inner membrane integrity in Escherichia coli K12 at 51.2 microg/ml measured for 180 sec by luciferase based bioluminescence assay; assay type: subcellular; details: dose 51.2 µg/ml
[21] = system: Cell membrane; assay: Disruption of membrane integrity in Bacillus subtilis 168 at 25.6 microg/ml measured for 180 sec by luciferase based bioluminescence assay; assay type: subcellular; details: dose 25.6 µg/ml
[22] = system: Escherichia coli; assay: Antimicrobial activity against Escherichia coli K12 assessed as inhibition of bacterial growth incubated for 48 hrs by CLSI based broth microdilution method; assay type: functional

Row | SMILES | MIC [1] [µg/mL] | EC50 at 1 h [2] [µg/mL] | MIC [3] [µg/mL] | MIC [4] [µg/mL] | MIC [5] [µg/mL] | selectivity ratio [6] | selectivity ratio [7] | selectivity ratio [8] | further results
1 | N=C(N)NCCCN1C(=O)N(CCCNC(=N)N)C(Cc2ccc(C(F)(F)F)cc2)(Cc2ccc(C(F)(F)F)cc2)C1=O.O=C(O)C(F)(F)F.O=C(O)C(F)(F)F | > 256 | > 421 | 16 | 128 | 8 |  |  |  | 
2 | N=C(N)NCCCN1C(=O)N(CCCNC(=N)N)C(Cc2cc(C(F)(F)F)cc(C(F)(F)F)c2)(Cc2cc(C(F)(F)F)cc(C(F)(F)F)c2)C1=O | 32 (≈ 42.6 µM) | > 489 | 4 (≈ 5.33 µM) | 32 (≈ 42.6 µM) | 2 (≈ 2.66 µM) | > 245 | > 122 |  | 
3 | NCCCN1C(=S)N(CCCN)C(Cc2cc(Br)cc(Br)c2)(Cc2cc(Br)cc(Br)c2)C1=S.O=C(O)C(F)(F)F.O=C(O)C(F)(F)F | 32 | 385 | 8 | 16 | 8 |  |  |  | 
4 | NCCCCN1C(=O)N(CCCCN)C(Cc2ccc(C(F)(F)F)cc2)(Cc2ccc(C(F)(F)F)cc2)C1=O.O=C(O)C(F)(F)F.O=C(O)C(F)(F)F | > 128 | > 393 | 64 | > 128 | 16 |  |  |  | 
5 | NCCCN1C(=O)N(CCCN)C(Cc2ccc(Br)c(Cl)c2)(Cc2ccc(Br)c(Cl)c2)C1=O.O=C(O)C(F)(F)F.O=C(O)C(F)(F)F | 32 | 368 | 8 | 32 | 4 |  |  |  | 
6 | NCCCCN1C(=O)N(CCCCN)C(Cc2cc(Br)cc(Br)c2)(Cc2cc(Br)cc(Br)c2)C1=O.O=C(O)C(F)(F)F.O=C(O)C(F)(F)F | 32 | 364 | 8 | 32 | 2 |  |  |  | 
7 | N=C(N)NCCCCN1C(=O)N(CCCCNC(=N)N)C(Cc2cc(C(F)(F)F)cc(C(F)(F)F)c2)(Cc2cc(C(F)(F)F)cc(C(F)(F)F)c2)C1=O.O=C(O)C(F)(F)F.O=C(O)C(F)(F)F | 32 | 384 | 2 | 8 | 2 | 192 | 192 | 48 | 
8 | NCCCN1C(=O)N(CCCN)C(Cc2ccc(Br)c3ccccc23)(Cc2ccc(Br)c3ccccc23)C1=O.O=C(O)C(F)(F)F.O=C(O)C(F)(F)F | 8 | 69 | 4 | 8 | 4 |  |  |  | 
9 | NCCCN1C(=O)N(CCCN)C(Cc2cc(Br)cc(Br)c2)(Cc2cc(Br)cc(Br)c2)C1=O.O=C(O)C(F)(F)F.O=C(O)C(F)(F)F | 8 | 344 | 8 | 16 | 4 | 86 | 43 | 22 | selectivity ratio [9]: 43
10 | N=C(N)NCCCN1C(=O)N(CCCNC(=N)N)C(Cc2cc(Br)cc(Br)c2)(Cc2cc(Br)cc(Br)c2)C1=O.O=C(O)C(F)(F)F.O=C(O)C(F)(F)F | 32 | 486 | 2 | 16 | 4 | 122 | 243 | 30 | 
11 | NCCCOc1nc(Cc2cc(Br)cc(Br)c2)c(Cc2cc(Br)cc(Br)c2)n1CCCN.O=C(O)C(F)(F)F.O=C(O)C(F)(F)F | 4 | 44 | 2 | 4 | 2 |  |  |  | 
12 | N=C(N)NCCCCN1C(=O)N(CCCCNC(=N)N)C(Cc2ccc(Br)c(Cl)c2)(Cc2ccc(Br)c(Cl)c2)C1=O.O=C(O)C(F)(F)F.O=C(O)C(F)(F)F | 32 | 347 | 1 | 8 | 1 | 347 | 347 | 43 | Activity [10]: Active; Activity [11]: Active; Activity [12]: inactive; Activity [13]: Active; Activity [14]: Active; Activity [15]: Active; Activity [16]: Active; Activity [17]: Dose-Dependent Effect; Activity [18]: inactive; Activity [19]: Dose-Dependent Effect; Activity [20]: inactive; Activity [21]: Active
13 | N=C(NCCCCCCNC(=N)NC(=N)Nc1ccc(Cl)cc1)NC(=N)Nc1ccc(Cl)cc1 [CHLORHEXIDINE] |  |  |  |  | 1.5 (≈ 2.97 µM) |  |  |  | MIC [22]: 1.5 µg/mL (≈ 2.97 µM)

From ChEMBL document CHEMBL5346904 (Eur J Med Chem, 2023)
